From patent US10287305B2, “Substituted piperidine compound and use thereof” (Takeda Pharmaceutical Company Limited, priority 2016, dated 2019)

Target: human orexin type 2 receptor (hOX2R) (Homo sapiens (Human), UniProt O43614)
Experiment: Measurement of orexin type 2 receptor agonist activity (Experimental Example 2-1, FLIPR TETRA, intracellular Ca2+)
Assay type: cell-based
Conditions: CHO dhfr- cells expressing hOX2R, FLIPR TETRA, Fluo-4AM; for Emax: read-out: Emax (%)

human orexin type 2 receptor (hOX2R), sequence (O43614 whole entry): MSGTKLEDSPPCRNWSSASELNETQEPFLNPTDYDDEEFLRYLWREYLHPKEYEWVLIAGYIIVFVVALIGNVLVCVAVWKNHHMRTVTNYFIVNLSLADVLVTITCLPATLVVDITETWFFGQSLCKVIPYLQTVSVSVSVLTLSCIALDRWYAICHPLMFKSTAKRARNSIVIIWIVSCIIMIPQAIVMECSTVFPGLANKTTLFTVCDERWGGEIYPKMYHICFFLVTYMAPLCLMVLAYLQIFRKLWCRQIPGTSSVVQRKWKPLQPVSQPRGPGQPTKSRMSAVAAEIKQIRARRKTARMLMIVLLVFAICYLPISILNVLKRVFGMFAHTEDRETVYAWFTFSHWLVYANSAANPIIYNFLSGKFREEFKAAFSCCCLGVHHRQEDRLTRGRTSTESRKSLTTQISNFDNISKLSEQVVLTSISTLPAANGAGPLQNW

CCNC(=O)N1CCC[C@H](NS(C)(=O)=O)[C@@H]1CO[C@H]1C[C@H](Oc2ccccc2)C1 (relative stereo) [Example 281, cis-N-ethyl-3-((methylsulfonyl)amino)-2-(((trans-3-phenoxycyclobutyl)oxy)methyl)piperidine-1-carboxamide]
EC50: 3300 nM
Emax: 81%

CC1(OC(=O)N2CCC[C@H](NS(C)(=O)=O)[C@@H]2COC2CCN(c3ncccn3)CC2)CC1 (relative stereo) [Example 284, 1-methylcyclopropyl cis-3-((methylsulfonyl)amino)-2-(((1-(pyrimidin-2-yl)piperidin-4-yl)oxy)methyl)piperidine-1-carboxylate]
EC50: 260 nM
Emax: 95%

CS(=O)(=O)N[C@H]1CCCN(C(=O)OCC(F)(F)F)[C@H]1COC1CCN(c2ncccn2)CC1 (relative stereo) [Example 286, 2,2,2-trifluoroethyl cis-3-((methylsulfonyl)amino)-2-(((1-(pyrimidin-2-yl)piperidin-4-yl)oxy)methyl)piperidine-1-carboxylate]
EC50: 130 nM
Emax: 93%

CS(=O)(=O)N[C@H]1CCCN(C(=O)OC2CC2)[C@H]1COC1CCN(c2ncccn2)CC1 (relative stereo) [Example 287, cyclopropyl cis-3-((methylsulfonyl)amino)-2-(((1-(pyrimidin-2-yl)piperidin-4-yl)oxy)methyl)piperidine-1-carboxylate]
EC50: 150 nM
Emax: 99%

CS(=O)(=O)N[C@H]1CCCN(C(=O)OC2CC2)[C@H]1COC1CCN(c2ccccc2F)CC1 (relative stereo) [Example 290, cyclopropyl cis-2-(((1-(2-fluorophenyl)piperidin-4-yl)oxy)methyl)-3-((methylsulfonyl)amino)piperidine-1-carboxylate]
EC50: 3300 nM
Emax: 79%

CC(=O)N1CCC[C@H](NS(C)(=O)=O)[C@@H]1CO[C@H]1CC[C@@H](c2ccccc2OC(F)(F)F)CC1 (relative stereo) [Example 293, N-(cis-1-acetyl-2-(((cis-4-(2-(trifluoromethoxy)phenyl)cyclohexyl)oxy)methyl)piperidin-3-yl)methanesulfonamide]
EC50: 540 nM
Emax: 78%

CS(=O)(=O)N[C@H]1CCCN(C(=O)C2CC2)[C@H]1CO[C@H]1CC[C@@H](c2ccccc2OC(F)(F)F)CC1 (relative stereo) [Example 294, N-(cis-1-(cyclopropylcarbonyl)-2-(((cis-4-(2-(trifluoromethoxy)phenyl)cyclohexyl)oxy)methyl)piperidin-3-yl)methanesulfonamide]
EC50: 130 nM
Emax: 95%

CCNC(=O)N1CCC[C@H](NS(C)(=O)=O)[C@@H]1CO[C@H]1CC[C@@H](c2ccccc2OC(F)(F)F)CC1 (relative stereo) [Example 295, cis-N-ethyl-3-((methylsulfonyl)amino)-2-(((cis-4-(2-(trifluoromethoxy)phenyl)cyclohexyl)oxy)methyl)piperidine-1-carboxamide]
EC50: 4.2 nM
Emax: 93%

CC(=O)N1CCC[C@H](NS(C)(=O)=O)[C@@H]1CO[C@H]1CC[C@@H](c2cccc(OC(F)(F)F)c2)CC1 (relative stereo) [Example 297, N-(cis-1-acetyl-2-(((cis-4-(3-(trifluoromethoxy)phenyl)cyclohexyl)oxy)methyl)piperidin-3-yl)methanesulfonamide]
EC50: 2100 nM
Emax: 76%

COC(=O)N1CCC[C@H](NS(C)(=O)=O)[C@@H]1CO[C@H]1CC[C@@H](c2cccc(OC(F)(F)F)c2)CC1 (relative stereo) [Example 298, methyl cis-3-((methylsulfonyl)amino)-2-(((cis-4-(3-(trifluoromethoxy)phenyl)cyclohexyl)oxy)methyl)piperidine-1-carboxylate]
Emax: 92%

CS(=O)(=O)N[C@H]1CCCN(C(=O)C2CC2)[C@H]1CO[C@H]1CC[C@@H](c2cccc(OC(F)(F)F)c2)CC1 (relative stereo) [Example 299, N-(cis-1-(cyclopropylcarbonyl)-2-(((cis-4-(3-(trifluoromethoxy)phenyl)cyclohexyl)oxy)methyl)piperidin-3-yl)methanesulfonamide]
EC50: 95 nM
Emax: 90%

CCNC(=O)N1CCC[C@H](NS(C)(=O)=O)[C@@H]1CO[C@H]1CC[C@@H](c2cccc(OC(F)(F)F)c2)CC1 (relative stereo) [Example 300, cis-N-ethyl-3-((methylsulfonyl)amino)-2-(((cis-4-(3-(trifluoromethoxy)phenyl)cyclohexyl)oxy)methyl)piperidine-1-carboxamide]
EC50: 9.7 nM
Emax: 94%

CCS(=O)(=O)N[C@H]1CCCN(C(=O)OC)[C@H]1CO[C@H]1CC[C@@H](c2ccccc2)CC1 (relative stereo) [Example 301, methyl cis-3-((ethylsulfonyl)amino)-2-(((cis-4-phenylcyclohexyl)oxy)methyl)-piperidine-1-carboxylate]
EC50: 21 nM
Emax: 105%

CC(C)OC(=O)N1CCC[C@H](NS(C)(=O)=O)[C@@H]1CO[C@H]1C[C@@H](c2ccccc2)C1 (relative stereo) [Example 307, isopropyl cis-3-((methylsulfonyl)mino)-2-(((cis-3-phenylcyclobutyl)oxy)methyl)-piperidine-1-carboxylate]
EC50: 1600 nM
Emax: 98%

CS(=O)(=O)N[C@H]1CCCN(C(=O)CC2CC2)[C@H]1CO[C@H]1C[C@@H](c2ccccc2)C1 (relative stereo) [Example 308, N-(cis-1-(cyclopropylacetyl)-2-(((cis-3-phenylcyclobutyl)oxy)methyl)-piperidin-3-yl)methanesulfonamide]
EC50: 590 nM
Emax: 109%

CCc1ccccc1[C@H]1CC[C@@H](OC[C@@H]2NCCC[C@@H]2NS(C)(=O)=O)CC1 (relative stereo) [Example 311, N-(cis-2-(((cis-4-(2-ethylphenyl)cyclohexyl)oxy)methyl)-piperidin-3-yl)methanesulfonamide]
EC50: 3200 nM
Emax: 98%

CC(OC(=O)N1CCC[C@H](NS(C)(=O)=O)[C@@H]1COC1CCN(c2ncccn2)CC1)C(F)(F)F (relative stereo) [Example 313, 1,1,1-trifluoropropan-2-yl cis-3-((methylsulfonyl)amino)-2-(((1-(pyrimidin-2-yl)piperidin-4-yl)oxy)methyl)piperidine-1-carboxylate]
EC50: 270 nM
Emax: 95%

CN(C)S(=O)(=O)N[C@H]1CCCN(C(=O)OCC(F)(F)F)[C@H]1COC1CCN(c2ncccn2)CC1 (relative stereo) [Example 315, 2,2,2-trifluoroethyl cis-3-((dimethylsulfamoyl)amino)-2-(((1-(pyrimidin-2-yl)piperidin-4-yl)oxy)methyl)piperidine-1-carboxylate]
EC50: 170 nM
Emax: 103%

CC(OC(=O)N1CCC[C@H](NS(=O)(=O)N(C)C)[C@@H]1COC1CCN(c2ncccn2)CC1)C(F)(F)F (relative stereo) [Example 316, 1,1,1-trifluoropropan-2-yl cis-3-((dimethylsulfamoyl)amino)-2-(((1-(pyrimidin-2-yl)piperidin-4-yl)oxy)methyl)piperidine-1-carboxylate]
EC50: 330 nM
Emax: 91%

CC(=O)N1CCC[C@H](NS(C)(=O)=O)[C@@H]1CO[C@H]1CC[C@@H](c2c(C)cccc2C)CC1 (relative stereo) [Example 321, N-(cis-1-acetyl-2-(((cis-4-(2,6-dimethylphenyl)cyclohexyl)oxy)-methyl)piperidin-3-yl)methanesulfonamide]
EC50: 2200 nM
Emax: 37%

COC(=O)N1CCC[C@H](NS(C)(=O)=O)[C@@H]1CO[C@H]1CC[C@@H](c2ccccc2C(F)F)CC1 (relative stereo) [Example 322, methyl cis-2-(((cis-4-(2-(difluoromethyl)phenyl)cyclohexyl)-oxy)methyl)-3-((methylsulfonyl)amino)piperidine-1-carboxylate]
Emax (%): 71%

CS(=O)(=O)N[C@H]1CCCN[C@H]1COC1CCC(F)(c2cc(F)cc(F)c2)CC1 (relative stereo) [Example 325, N-(cis-2-(((4-(3,5-difluorophenyl)-4-fluorocyclohexyl)oxy)methyl)-piperidin-3-yl)methanesulfonamide]
EC50: 5000 nM
Emax: 75%

CS(=O)(=O)N[C@H]1CCCN(C(=O)C2CC2)[C@H]1COC1CCC(F)(c2cc(F)cc(F)c2)CC1 (relative stereo) [Example 327, N-(cis-1-(cyclopropylcarbonyl)-2-(((4-(3,5-difluorophenyl)-4-fluorocyclohexyl)oxy)methyl)-piperidin-3-yl)methanesulfonamide]
EC50: 2600 nM
Emax: 86%

CS(=O)(=O)N[C@H]1CCCN(C(=O)C2CC2)[C@H]1CO[C@H]1CC[C@@H](c2ncccn2)CC1 (relative stereo) [Example 328, N-(cis-1-(cyclopropylcarbonyl)-2-(((cis-4-(pyrimidin-2-yl)cyclohexyl)oxy)methyl)piperidin-3-yl)methanesulfonamide]
EC50: 7100 nM
Emax: 72%

CS(=O)(=O)N[C@H]1CCCN[C@H]1CO[C@H]1CC[C@@H](c2ccccc2Cl)CC1 (relative stereo) [Example 332, N-(cis-2-(((cis-4-(2-chlorophenyl)cyclohexyl)oxy)-methyl)piperidin-3-yl)methanesulfonamide]
EC50: 610 nM
Emax: 93%

CC(=O)N1CCC[C@H](NS(C)(=O)=O)[C@@H]1CO[C@H]1CC[C@@H](c2ccccc2Cl)CC1 (relative stereo) [Example 334, N-(cis-1-acetyl-2-(((cis-4-(2-chlorophenyl)cyclohexyl)oxy)-methyl)piperidin-3-yl)methanesulfonamide]
EC50: 27 nM
Emax: 93%

COC(=O)N1CCC[C@H](NS(C)(=O)=O)[C@@H]1CO[C@H]1CC[C@@H](c2ccccc2Cl)CC1 (relative stereo) [Example 335, methyl cis-2-(((cis-4-(2-chlorophenyl)cyclohexyl)oxy)-methyl)-3-((methylsulfonyl)amino)piperidine-1-carboxylate]
EC50: 6.1 nM
Emax: 101%
